Data as given in patent publication US20190062305A1, “PYRIDYL OR PYRAZINYL COMPOUNDS CARRYING A METHYL-BOUND ALPHA-AMINO ACID AMIDE GROUP” (ABBVIE DEUTSCHLAND GMBH & CO. KG, priority 2015, published 2019).
Where a name gives a salt, the structure may show the parent alone.

Key:
5-HT2C receptor = molecular target: T1, 5-HT2C receptor (Homo sapiens, UniProt P28335); experiment: Human 5-HT2C functional assay (beta-arrestin2 recruitment, U2OS_HTR2C_β-Arrestin cells); assay type: cell-based; settings: for EC50: beta-arrestin2 recruitment, U2OS_HTR2C_β-Arrestin cells, 1.5 h incubation, read-out: EC50 5-HT2C (potency in functional assay); for Emax: relative efficacy vs response to 10 μM 5-HT or maximal 5-HT effect (100%)
T1 construct: host or cells: U2OS
T1 sequence (P28335 33-458): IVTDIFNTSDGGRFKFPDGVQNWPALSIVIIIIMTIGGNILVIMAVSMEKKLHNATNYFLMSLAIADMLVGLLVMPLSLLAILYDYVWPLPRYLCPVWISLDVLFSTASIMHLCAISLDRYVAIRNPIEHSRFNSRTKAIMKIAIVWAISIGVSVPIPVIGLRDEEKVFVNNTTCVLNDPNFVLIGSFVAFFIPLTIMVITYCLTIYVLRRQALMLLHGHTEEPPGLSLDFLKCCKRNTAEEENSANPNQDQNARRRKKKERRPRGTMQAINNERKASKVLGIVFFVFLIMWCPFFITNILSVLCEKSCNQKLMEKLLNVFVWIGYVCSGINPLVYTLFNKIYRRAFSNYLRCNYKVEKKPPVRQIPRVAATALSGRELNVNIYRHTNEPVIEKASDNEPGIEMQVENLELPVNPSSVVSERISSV
T1 sequence (P32121 whole entry partner): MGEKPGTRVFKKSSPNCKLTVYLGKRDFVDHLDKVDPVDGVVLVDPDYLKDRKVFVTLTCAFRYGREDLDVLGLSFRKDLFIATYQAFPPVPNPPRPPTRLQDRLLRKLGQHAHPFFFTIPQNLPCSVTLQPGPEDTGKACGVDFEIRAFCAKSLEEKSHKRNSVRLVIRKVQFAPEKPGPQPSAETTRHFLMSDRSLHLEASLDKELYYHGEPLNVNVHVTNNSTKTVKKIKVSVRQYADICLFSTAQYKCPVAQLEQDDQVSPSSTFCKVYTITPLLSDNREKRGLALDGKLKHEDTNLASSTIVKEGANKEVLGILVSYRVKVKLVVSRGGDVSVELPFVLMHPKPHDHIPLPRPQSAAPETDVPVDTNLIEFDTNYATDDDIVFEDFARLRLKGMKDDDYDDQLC
Summary of the method: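 U2OS cells expressing HTR2C with β-galactosidase complementation, switched to 1% serum medium 24 h post-plating, were treated next day with compound for 1.5 h; chemiluminescence read. Response expressed as % of 10 µM 5-HT or maximal 5-HT effect; EC50 from 4-parameter variable-slope fit.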

[1] = Metabolic stability in human liver microsomes, unbound intrinsic clearance (Cl int/fu mic); assay type: in vitro ADME; settings: human, liver microsomes, pH 7.4, human liver microsomes 0.25 mg/mL, 0.5 μM compound, NADPH, read-out: Cl int, mic unb. (h) [l/h/kg] (unbound intrinsic clearance, human)
Summary of the method: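 Compound (0.5 µM) was incubated with human liver microsomes (0.25 mg/mL) in pH 7.4 phosphate buffer at 37 °C with 1.0 mM NADPH, sampling from 0–30 min. Depletion was followed by LC-MS/MS, and CLint was derived from first-order t1/2 per mg protein. Microsomal unbound fraction came from 4 h equilibrium dialysis at 37 °C, giving CLint/fu mic.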

| SMILES | EC50 (5-HT2C receptor) | Emax (5-HT2C receptor) | CLint scaled at 0.5 μM [1] |
| --- | --- | --- | --- |
| COc1nc(OC2CCC(CF)CC2)c(F)cc1CNC(=O)[C@@H]1CCCN1 (stereo partly drawn) [Example 75, (2S)—N-[[5-fluoro-6-[4-(fluoromethyl)cyclohexoxy]-2-methoxy-3-pyridyl]methyl]-pyrrolidine-2-carboxamide; 2,2,2-trifluoroacetic Acid] | < 20 nM | > 70% | 5 to 50 L/h/kg |
| COc1nc(OCC2(C(F)(F)F)CC2)c(F)cc1CN(C)C(=O)[C@@H]1CCCN1 [Example 76, (2S)—N-[[5-Fluoro-2-methoxy-6-[[1-(trifluoromethyl)cyclopropyl]methoxy]-3-pyridyl]methyl]-N-methyl-pyrrolidine-2-carboxamide Hydrochloride] | < 20 nM | > 70% | < 5 L/h/kg |
| COc1nc(OCC2CC2(F)F)c(F)cc1CN(C)C(=O)[C@@H]1CCCN1 (stereo partly drawn) [Example 77, (2S)—N-[[6-[(2,2-Difluorocyclopropyl)methoxy]-5-fluoro-2-methoxy-3-pyridyl]-methyl]-N-methyl-pyrrolidine-2-carboxamide Hydrochloride] | < 20 nM | > 70% | < 5 L/h/kg |
| COc1nc(OC2CC(F)(F)C2)c(F)cc1CN(C)C(=O)[C@@H]1CCCN1 [Example 78, (2S)—N-[[6-(3,3-Difluorocyclobutoxy)-5-fluoro-2-methoxy-3-pyridyl]methyl]-N-methyl-pyrrolidine-2-carboxamide Hydrochloride] | < 20 nM | > 70% | < 5 L/h/kg |
| COc1nc(OC2CCC(C(F)(F)F)CC2)c(F)cc1CNC(=O)[C@H]1NC[C@H]1C (stereo partly drawn) [Example 79, (2S,3R)—N-[[5-Fluoro-2-methoxy-6-[4-(trifluoromethyl)cyclohexoxy]-3-pyridyl]-methyl]-3-methyl-azetidine-2-carboxamide; Fumaric Acid] | 20 to 200 nM | 30 to 50% | 50 to 500 L/h/kg |
| COc1nc(OC2CCC(O)CC2)c(F)cc1CNC(=O)[C@@H]1CCCN1 (stereo partly drawn) [Example 81, (2S)—N-[[5-Fluoro-6-(4-hydroxycyclohexoxy)-2-methoxy-3-pyridyl]methyl]-pyrrolidine-2-carboxamide; 2,2,2-trifluoroacetic Acid] | 200 to 1000 nM | > 70% | < 5 L/h/kg |
| COc1nc(OC2CCC(C(F)(F)F)CC2)c(F)cc1CNC(=O)[C@@H]1C[C@H]2C[C@H]2N1 (stereo partly drawn) [Example 82, (1R,3 S,5R)—N-[[5-Fluoro-2-methoxy-6-[4-(trifluoromethyl)cyclohexoxy]-3-pyridyl]methyl]-4-azabicyclo[3.1.0]hexane-3-carboxamide] | 20 to 200 nM | > 70% | 5 to 50 L/h/kg |
| COc1nc(OCC(F)F)c(F)cc1CNC(=O)[C@@H]1CCCN1 [Example 86, (2S)—N-[[6-(2,2-Difluoroethoxy)-5-fluoro-2-methoxy-3-pyridyl]methyl]pyrrolidine-2-carboxamide; 2,2,2-trifluoroacetic Acid] | < 20 nM | > 70% | < 5 L/h/kg |
| COc1nc(OCC(F)(F)F)c(F)cc1CNC(=O)[C@@H]1CCCN1 [Example 87, (2S)—N-[[5-Fluoro-2-methoxy-6-(2,2,2-trifluoroethoxy)-3-pyridyl]methyl]-pyrrolidine-2-carboxamide; 2,2,2-trifluoroacetic Acid] | < 20 nM | > 70% | < 5 L/h/kg |
| COc1nc(OCC2CC(F)(F)C2(F)F)c(F)cc1CNC(=O)[C@@H]1CCCN1C (stereo partly drawn) [Example 90, (2S)—N-[[5-Fluoro-2-methoxy-6-[(2,2,3,3-tetrafluorocyclobutyl)methoxy]-3-pyridyl]methyl]-1-methyl-pyrrolidine-2-carboxamide Hydrochloride] | < 20 nM | > 70% | < 5 L/h/kg |
| COc1nc(OCC(F)(F)C(F)F)c(F)cc1CNC(=O)[C@@H]1CCCN1C [Example 91, (2S)—N-[[5-Fluoro-2-methoxy-6-(2,2,3,3-tetrafluoropropoxy)-3-pyridyl]methyl]-1-methyl-pyrrolidine-2-carboxamide Hydrochloride] | < 20 nM | > 70% | < 5 L/h/kg |
